Measured values published in patent EP4342885A1, “N-(3-(AMINOMETHYL)-PHENYL)-5-(4-PHENYL)-5-(TRIFLUOROMETHYL)-4,5-DIHYDROISOXAZOL-3-AMINE DERIVATIVES AND SIMILAR COMPOUNDS AS PESTICIDES” (priority 2022, dated 2024).

What was measured:
Type in all cases: in vivo
Plutella xylostella = test: Diamond back moth (Plutella xylostella) control, 96-well microtiter plate insect diet with eggs; conditions: 120 h, read-out: mortality in comparison with untreated controls
Description: For evaluating control of […] (Plutella xylostella) the test unit consisted of 96-well-microtiter plates containing an insect diet and 15-25 P. xylostella eggs.
The compounds or mixtures were formulated using a solution containing 75% water and 25% DMSO. Different concentrations of formulated compounds or mixtures were sprayed onto the insect diet at 5µl, using a custom-built micro atomizer, at two replications.
After application, microtiter plates were incubated at 28 ± 1°C, 80 ± 5 % RH for 5 days. Egg and larval mortality was then visually assessed.

Myzus persicae = test: Green peach aphid (Myzus persicae), mixed life stages, systemic test via artificial diet under membrane; conditions: 72 h, read-out: mortality in comparison with untreated controls
Source text: For evaluating control of Green Peach Aphid through systemic means the test unit consisted of 96-well-microtiter plates containing liquid artificial diet under an artificial membrane. The compounds were formulated using a solution containing 75% v/v water and 25% v/v DMSO. Different concentrations of formulated compounds were pipetted into the aphid diet, using a custom-built pipette, at two replications. After application, 5 - 8 adult aphids were placed on the artificial membrane inside the microtiter plate wells. The aphids were then allowed to suck on the treated aphid diet and incubated at about 23 ± 1°C and about 50 ± 5 % relative humidity for 3 days. Aphid mortality and fecundity was then visually assessed.

Anthonomus grandis = test: Boll weevil (Anthonomus grandis) control, 96-well microtiter plate insect diet with eggs; conditions: 120 h, read-out: mortality in comparison with untreated controls
Description: For evaluating control of boll weevil, the test unit consisted of 96-well-microtiter plates containing an insect diet and 5-10 A. grandis eggs.
The compounds were formulated using a solution containing 75% v/v water and 25% v/v DMSO. Different concentrations of formulated compounds were sprayed onto the insect diet at 5µl, using a custom-built micro atomizer, at two replications.
After application, microtiter plates were incubated at about 25 ± 1°C and about 75 ± 5 % relative humidity for 5 days. Egg and larval mortality were then visually assessed.

Heliothis virescens = test: Tobacco budworm (Heliothis virescens) control, 96-well microtiter plate insect diet with eggs; conditions: 120 h, read-out: mortality in comparison with untreated controls
Description: For evaluating control of Tobacco Budworm, the test unit consisted of 96-well-microtiter plates containing an insect diet and 15-25 H. virescens eggs. The compounds were formulated using a solution containing 75% v/v water and 25% v/v DMSO. Different concentrations of formulated compounds were sprayed onto the insect diet at 10µl, using a custom-built micro atomizer, at two replications. After application, microtiter plates were incubated at about 28 ± 1°C and about 80 ± 5 % relative humidity for 5 days. Egg and larval mortality was then visually assessed.

Aedes aegypti = test: whole plant or invertebrate; conditions: 48 h, larval mortality, 2 days, read-out: mortality in comparison with untreated controls
Description: For evaluating control of Yellow Fever Mosquito, the test unit consisted of 96-well-microtiter plates containing 200µl of tap water per well and 5-15 freshly hatched A. aegypti larvae. The active compounds were formulated using a solution containing 75% (v/v) water and 25% (v/v) DMSO. Different concentrations of formulated compounds or mixtures were sprayed onto the insect diet at 2.5µl, using a custom-built micro atomizer, at two replications.
After application, microtiter plates were incubated at 28 ± 1°C, 80 ± 5 % RH for 2 days. Larval mortality was then visually assessed.

Measured: mortality at 800 ppm

CCC(=O)NCc1cc(NC2=NOC(c3cc(Cl)cc(Cl)c3)(C(F)(F)F)C2)ccc1F (centres unmarked) [I-2]
not listed: Aedes aegypti
≥ 75%: all other assays above

COCCC(=O)NCc1cc(NC2=NOC(c3cc(Cl)cc(Cl)c3)(C(F)(F)F)C2)ccc1F (centres unmarked) [I-3]
not listed: Plutella xylostella
≥ 75%: all other assays above

CS(=O)(=O)CC(=O)NCc1cc(NC2=NOC(c3cc(Cl)cc(Cl)c3)(C(F)(F)F)C2)ccc1F (centres unmarked) [I-4]
not listed: Plutella xylostella
≥ 75%: all other assays above

O=C(CC1CC1)NCc1cc(NC2=NOC(c3cc(Cl)cc(Cl)c3)(C(F)(F)F)C2)ccc1F (centres unmarked) [I-6]
not listed: Plutella xylostella
≥ 75%: all other assays above

O=C(NCc1cc(NC2=NOC(c3cc(Cl)cc(Cl)c3)(C(F)(F)F)C2)ccc1F)c1ncon1 (centres unmarked) [I-7]
≥ 75%: Anthonomus grandis

COCC(=O)NCc1cc(NC2=NOC(c3cc(Cl)cc(Cl)c3)(C(F)(F)F)C2)ccc1F (centres unmarked) [I-9]
≥ 75%: Myzus persicae | Anthonomus grandis

COC(=O)N1CCCC1C(=O)NCc1cc(NC2=NOC(c3cc(Cl)cc(Cl)c3)(C(F)(F)F)C2)ccc1F (centres unmarked) [I-10]
≥ 75%: Anthonomus grandis

O=C(NCc1cc(NC2=NOC(c3cc(Cl)cc(Cl)c3)(C(F)(F)F)C2)ccc1F)c1ccccn1 (centres unmarked) [I-11]
≥ 75%: Plutella xylostella | Anthonomus grandis

CON=CC(=O)NCc1cc(NC2=NOC(c3cc(Cl)cc(Cl)c3)(C(F)(F)F)C2)ccc1F (centres unmarked) [I-12]
not listed: Aedes aegypti
≥ 75%: all other assays above

CCS(=O)(=O)NCc1cc(NC2=NOC(c3cc(Cl)cc(Cl)c3)(C(F)(F)F)C2)ccc1F (centres unmarked) [I-13]
≥ 75%: all assays above

O=C(NCc1cc(NC2=NOC(c3cc(Cl)c(F)c(Cl)c3)(C(F)(F)F)C2)ccc1Cl)C1CC1 (centres unmarked) [I-14]
≥ 75%: all assays above

CCN(C1=NOC(c2cc(Cl)c(F)c(Cl)c2)(C(F)(F)F)C1)c1ccc(F)c(CNC(=O)C2CC2)c1 (centres unmarked) [I-15]
≥ 75%: all assays above

O=C(NCc1cc(NC2=NOC(c3cc(Cl)c(F)c(Cl)c3)(C(F)(F)F)C2)ccc1F)C1CC1 (centres unmarked) [I-16]
≥ 75%: all assays above

CN(Cc1cc(NC2=NOC(c3cc(Cl)c(F)c(Cl)c3)(C(F)(F)F)C2)ccc1F)C(=O)C1CC1 (centres unmarked) [I-17]
not listed: Myzus persicae
≥ 75%: all other assays above

O=C(NCc1cc(NC2=NOC(c3cc(Cl)c(F)c(Cl)c3)(C(F)(F)F)C2)ccc1OC(F)(F)F)C1CC1 (centres unmarked) [I-18]
≥ 75%: all assays above

Cc1ccc(NC2=NOC(c3cc(Cl)c(F)c(Cl)c3)(C(F)(F)F)C2)cc1CNC(=O)C1CC1 (centres unmarked) [I-20]
≥ 75%: all assays above

O=C(NCc1cc(NC2=NOC(c3ccc(F)c(Cl)c3)(C(F)(F)F)C2)ccc1Cl)C1CC1 (centres unmarked) [I-21]
≥ 75%: all assays above

O=C(CNC(=O)C1CC1)NCc1cc(NC2=NOC(c3ccc(F)c(Cl)c3)(C(F)(F)F)C2)ccc1Cl (centres unmarked) [I-26]
not listed: Heliothis virescens
≥ 75%: all other assays above

O=C(Cc1ccccc1)NCc1cc(NC2=NOC(c3ccc(F)c(Cl)c3)(C(F)(F)F)C2)ccc1Cl (centres unmarked) [I-27]
≥ 75%: Aedes aegypti

O=C(NCc1cc(NC2=NOC(c3ccc(F)c(Cl)c3)(C(F)(F)F)C2)ccc1Cl)C1CC=CC1 (centres unmarked) [I-29]
not listed: Heliothis virescens
≥ 75%: all other assays above

O=C(CN1CCCC1=O)NCc1cc(NC2=NOC(c3ccc(F)c(Cl)c3)(C(F)(F)F)C2)ccc1Cl (centres unmarked) [I-31]
≥ 75%: Myzus persicae | Aedes aegypti

O=C(CC1OCCO1)NCc1cc(NC2=NOC(c3ccc(F)c(Cl)c3)(C(F)(F)F)C2)ccc1Cl (centres unmarked) [I-33]
≥ 75%: Plutella xylostella | Anthonomus grandis | Aedes aegypti

N#Cc1ccc(C(=O)NCc2cc(NC3=NOC(c4ccc(F)c(Cl)c4)(C(F)(F)F)C3)ccc2Cl)s1 (centres unmarked) [I-34]
≥ 75%: Plutella xylostella | Anthonomus grandis | Aedes aegypti

Cn1ncc(C#N)c1C(=O)NCc1cc(NC2=NOC(c3ccc(F)c(Cl)c3)(C(F)(F)F)C2)ccc1Cl (centres unmarked) [I-37]
≥ 75%: Plutella xylostella | Aedes aegypti

O=C(Cn1cccn1)NCc1cc(NC2=NOC(c3ccc(F)c(Cl)c3)(C(F)(F)F)C2)ccc1Cl (centres unmarked) [I-38]
≥ 75%: Plutella xylostella | Anthonomus grandis | Aedes aegypti

O=C(Cn1cncn1)NCc1cc(NC2=NOC(c3ccc(F)c(Cl)c3)(C(F)(F)F)C2)ccc1Cl (centres unmarked) [I-40]
not listed: Heliothis virescens
≥ 75%: all other assays above

O=C(Cc1ccsc1)NCc1cc(NC2=NOC(c3ccc(F)c(Cl)c3)(C(F)(F)F)C2)ccc1Cl (centres unmarked) [I-44]
not listed: Heliothis virescens
≥ 75%: all other assays above

CS(=O)(=O)N1CC(C(=O)NCc2cc(NC3=NOC(c4ccc(F)c(Cl)c4)(C(F)(F)F)C3)ccc2Cl)C1 (centres unmarked) [I-46]
not listed: Heliothis virescens
≥ 75%: all other assays above

CS(=O)(=O)NCC(=O)NCc1cc(NC2=NOC(c3ccc(F)c(Cl)c3)(C(F)(F)F)C2)ccc1Cl (centres unmarked) [I-47]
not listed: Heliothis virescens
≥ 75%: all other assays above

O=C(CC1CCS(=O)(=O)C1)NCc1cc(NC2=NOC(c3ccc(F)c(Cl)c3)(C(F)(F)F)C2)ccc1Cl (centres unmarked) [I-49]
≥ 75%: Myzus persicae | Anthonomus grandis | Aedes aegypti

N#CCC(=O)NCc1cc(NC2=NOC(c3ccc(F)c(Cl)c3)(C(F)(F)F)C2)ccc1Cl (centres unmarked) [I-51]
not listed: Heliothis virescens
≥ 75%: all other assays above
